For one experiment, the target named is α1 receptors. Description: competitive experiment with the α1 selective radio ligand [3H]Prazosin. The following applies: read-out: Ki values α1 (footnote d); pα1; competitive experiment with [3H]Prazosin.
Experiment [1] concerns the target T1, D3 receptor (Homo sapiens, UniProt P35462). The experiment in a line: radio ligand binding assay, CHO cell membrane homogenates, [3H]Spiperon, D3. More on the design: expressed in transfected cells; host or cells: CHO cells (membrane homogenates). The settings on record: for Ki: hD3, average of 2-9 experiments in triplicate, read-out: Ki-values D3; for D3 selectivity D2long/D3 / D3 selectivity D2short/D3 / D3 selectivity D4.4/D3: ratio of Ki values. As to the method:
(§1) The biological activities of the compounds of the invention were determined in radio ligand binding assays.

Experiment [2] concerns the target T1, D3 receptor. Description: mitogenesis assay (intrinsic activity). The experiment is classed as cell-based. An excerpt:
D3 ligands may show agonistic, antagonistic or partial-agonistic activity on the D3 receptor. The respective intrinsic activities of the compounds of the invention may be measured in mitogenesis assays as described in literature (Hübner, H. et al. J. Med. Chem. 2000, 43, 4563-4569, and Löber, S. Bioorg. Med. Chem. Lett. 2002, 12.17, 2377-2380). Depending on the pathophysiology of the underlying disease, a stronger agonistic, stronger antagonistic or partial-agonistic activity may be desirable. The present invention therefore permits an excellent fine-tuning of the desired activity.
Tests to determine the intrinsic activity of the compounds of the examples were carried out in a mitogenesis assay as described in literature (Hübner, H. et al. J. Med. Chem. 2000, 43, 4563-4569; Löber, S. Bioorg. Med. Chem. Lett. 2002, 12.17, 2377-2380).

The target in the next experiment is T2, human D2long receptor (Homo sapiens, UniProt P14416).
T2 construct: expressed in transfected cells; host or cells: CHO cells (membrane homogenates)
T2 sequence (P14416 whole entry): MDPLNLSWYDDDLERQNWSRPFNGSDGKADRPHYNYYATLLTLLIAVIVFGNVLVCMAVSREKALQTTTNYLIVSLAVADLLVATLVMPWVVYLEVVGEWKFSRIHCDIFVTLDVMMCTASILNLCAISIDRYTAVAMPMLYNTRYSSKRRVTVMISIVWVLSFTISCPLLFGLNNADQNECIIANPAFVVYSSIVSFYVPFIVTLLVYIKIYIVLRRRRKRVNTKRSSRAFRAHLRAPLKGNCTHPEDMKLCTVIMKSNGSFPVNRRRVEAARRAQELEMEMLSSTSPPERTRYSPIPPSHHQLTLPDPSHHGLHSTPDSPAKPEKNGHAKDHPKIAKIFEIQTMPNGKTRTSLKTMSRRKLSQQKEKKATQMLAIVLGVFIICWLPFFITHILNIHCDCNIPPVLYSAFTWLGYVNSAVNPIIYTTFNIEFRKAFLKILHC
Description: radio ligand binding assay, CHO cell membrane homogenates, [3H]Spiperon, D2long. The following applies: hD2long; average of 2-9 experiments in triplicate. As to the method:
as §1

In experiment [3] the target is T3, serotonin receptor 5-HT1A (Sus scrofa, UniProt A0A4X1UTF5).
T3 sequence (A0A4X1UTF5 1-422): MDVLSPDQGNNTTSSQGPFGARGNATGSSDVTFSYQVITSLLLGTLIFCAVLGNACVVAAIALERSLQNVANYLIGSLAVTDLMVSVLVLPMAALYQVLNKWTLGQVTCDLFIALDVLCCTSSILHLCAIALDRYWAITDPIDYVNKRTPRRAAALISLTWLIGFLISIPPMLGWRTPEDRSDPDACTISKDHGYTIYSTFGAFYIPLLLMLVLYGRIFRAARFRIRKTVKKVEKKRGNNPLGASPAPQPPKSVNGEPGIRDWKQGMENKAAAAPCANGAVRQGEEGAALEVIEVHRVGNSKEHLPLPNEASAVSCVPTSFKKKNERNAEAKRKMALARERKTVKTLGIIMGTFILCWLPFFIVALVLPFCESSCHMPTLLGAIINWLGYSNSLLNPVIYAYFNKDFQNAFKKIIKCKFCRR
Description: radio ligand binding, pig cortex membrane preparations, [3H]8-OH-DPAT. The settings on record: read-out: Ki values 5-HT1A; p5-HT1A; [3H]8-OH-DPAT; average of 2 to 6 experiments.

A further experiment has as its target T4, human D4.4 receptor (Homo sapiens, UniProt P21917).
T4 construct: expressed in transfected cells; host or cells: CHO cells (membrane homogenates)
T4 sequence (P21917 1-419): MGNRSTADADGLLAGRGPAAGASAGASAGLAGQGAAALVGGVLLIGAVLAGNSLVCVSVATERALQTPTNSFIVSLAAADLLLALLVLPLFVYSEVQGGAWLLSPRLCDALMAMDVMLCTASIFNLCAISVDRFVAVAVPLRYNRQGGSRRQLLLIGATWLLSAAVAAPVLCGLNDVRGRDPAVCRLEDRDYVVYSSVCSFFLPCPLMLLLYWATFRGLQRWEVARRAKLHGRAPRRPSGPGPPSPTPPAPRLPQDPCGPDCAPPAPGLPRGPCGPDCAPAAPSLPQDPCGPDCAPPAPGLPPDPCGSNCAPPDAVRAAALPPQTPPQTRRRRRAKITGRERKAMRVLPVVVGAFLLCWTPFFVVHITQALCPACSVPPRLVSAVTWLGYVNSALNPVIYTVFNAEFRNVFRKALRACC
Description: radio ligand binding assay, CHO cell membrane homogenates, [3H]Spiperon, D4.4. The settings on record: hD4.4; average of 2-9 experiments in triplicate. As to the method:
as §1

The next experiment has as its target T5, D1 receptor (Sus scrofa, UniProt P50130).
T5 construct: native membrane homogenates obtained from the striatum of a pig; from tissue; host or cells: pig striatum
The experiment in a line: radio ligand binding assay, D1 receptor, pig striatum membrane homogenates, [3H]SCH 23390. The following applies: pD1; average of 2-9 experiments in triplicate. As to the method:
as §1

A further experiment has as its target T6, human D2short receptor (Homo sapiens, UniProt P14416).
T6 construct: expressed in transfected cells; host or cells: CHO cells (membrane homogenates)
The experiment in a line: radio ligand binding assay, CHO cell membrane homogenates, [3H]Spiperon, D2short. The settings on record: hD2short; average of 2-9 experiments in triplicate. As to the method: as §1

For the next experiment, the target named is T7, serotonin receptor 5-HT2 (Sus scrofa, UniProt P50129).
T7 construct: cortex membrane preparations of a pig; from tissue; host or cells: pig cortex
T7 sequence (P50129 whole entry): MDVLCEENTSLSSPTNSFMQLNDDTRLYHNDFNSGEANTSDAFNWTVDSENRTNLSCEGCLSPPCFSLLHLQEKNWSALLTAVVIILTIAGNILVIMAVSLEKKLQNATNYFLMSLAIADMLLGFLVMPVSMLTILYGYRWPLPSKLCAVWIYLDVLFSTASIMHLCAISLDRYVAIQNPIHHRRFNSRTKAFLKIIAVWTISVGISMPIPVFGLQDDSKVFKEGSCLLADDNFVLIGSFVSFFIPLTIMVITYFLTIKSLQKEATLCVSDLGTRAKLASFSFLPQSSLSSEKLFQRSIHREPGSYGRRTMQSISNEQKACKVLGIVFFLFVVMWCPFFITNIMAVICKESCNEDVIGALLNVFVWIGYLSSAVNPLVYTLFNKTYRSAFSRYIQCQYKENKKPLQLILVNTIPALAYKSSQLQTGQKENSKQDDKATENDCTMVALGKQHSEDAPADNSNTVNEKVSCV
Description: radio ligand binding, pig cortex membrane preparations, [3H]Ketanserin with 10 μM Prazosin. The following applies: p5-HT2; simultaneous incubation with 10 μM of Prazosin.

T6 sequence (P14416 1-414 isoform P14416-2): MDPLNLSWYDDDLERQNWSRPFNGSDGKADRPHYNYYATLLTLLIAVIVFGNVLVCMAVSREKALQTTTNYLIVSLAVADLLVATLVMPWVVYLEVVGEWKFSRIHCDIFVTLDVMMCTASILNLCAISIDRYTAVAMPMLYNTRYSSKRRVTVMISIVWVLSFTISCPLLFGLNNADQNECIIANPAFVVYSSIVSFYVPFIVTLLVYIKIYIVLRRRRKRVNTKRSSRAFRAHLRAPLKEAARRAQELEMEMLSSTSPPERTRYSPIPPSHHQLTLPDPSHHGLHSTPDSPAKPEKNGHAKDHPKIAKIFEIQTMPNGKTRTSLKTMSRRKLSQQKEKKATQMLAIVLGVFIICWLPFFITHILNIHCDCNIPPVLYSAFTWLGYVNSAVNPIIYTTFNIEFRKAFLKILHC
T5 sequence (P50130 whole entry): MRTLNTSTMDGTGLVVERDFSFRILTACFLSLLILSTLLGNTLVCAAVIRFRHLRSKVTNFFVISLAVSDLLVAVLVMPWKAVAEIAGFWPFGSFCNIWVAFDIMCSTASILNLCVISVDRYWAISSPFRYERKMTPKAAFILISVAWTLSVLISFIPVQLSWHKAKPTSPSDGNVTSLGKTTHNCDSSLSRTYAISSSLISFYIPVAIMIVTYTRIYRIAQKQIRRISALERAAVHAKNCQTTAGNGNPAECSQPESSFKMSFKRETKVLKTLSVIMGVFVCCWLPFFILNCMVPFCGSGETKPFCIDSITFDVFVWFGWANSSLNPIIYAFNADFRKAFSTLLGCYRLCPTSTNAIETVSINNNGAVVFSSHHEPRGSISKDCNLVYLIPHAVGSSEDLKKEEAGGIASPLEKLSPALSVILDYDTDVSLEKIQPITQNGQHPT
T1 sequence (P35462 whole entry): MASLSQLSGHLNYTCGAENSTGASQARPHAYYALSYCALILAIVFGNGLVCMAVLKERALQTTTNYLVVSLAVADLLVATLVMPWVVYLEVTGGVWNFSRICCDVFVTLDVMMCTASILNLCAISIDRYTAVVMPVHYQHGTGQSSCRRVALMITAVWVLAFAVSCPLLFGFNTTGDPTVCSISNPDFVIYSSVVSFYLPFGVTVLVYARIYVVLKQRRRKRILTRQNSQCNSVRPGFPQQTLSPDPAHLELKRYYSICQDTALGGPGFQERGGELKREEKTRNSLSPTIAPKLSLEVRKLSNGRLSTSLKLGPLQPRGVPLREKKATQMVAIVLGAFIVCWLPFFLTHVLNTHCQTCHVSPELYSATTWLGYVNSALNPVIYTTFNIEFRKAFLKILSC

In the case of `COc1ccccc1N1CCN(CCCCNC(=O)c2cc3ccccc3s2)CC1` [Example 1, N-4-(4-(2-methoxyphenyl)piperazine-1-yl)butyl-2-benzo[b]thiophenylcarbamide], the Ki on α1 receptors is 6.4 nM; on D3 receptor [1] it was 0.23 to 0.57 nM. Besides, at D3 receptor [2] (curve calculation of the concentration-activity test), the EC50 was 0.38 nM. Further, on D3 receptor [2] (maximum triggered by the full agonist Quinpirol as reference), the “partial agonistic activity, % of the maximum receptor stimulation” value is given as 49%.
Take `COc1ccccc1N1CCN(CCCCNC(=O)c2cc3cc(Br)ccc3o2)CC1` [Example 5, N-4-(4-(2-methoxyphenyl)piperazine-1-yl)butyl-5-brom-2-benzo[b]furanylcarbamide]: the inhibitory constant (Ki) is 96 nM at human D2long receptor; 68 nM in experiment [3]; 17 nM on human D4.4 receptor; 590 nM at D1 receptor; 5.3 nM at α1 receptors; 61 nM at human D2short receptor. Also, the Ki on D3 receptor [1] is 0.69 nM; at serotonin receptor 5-HT2, 140 nM. Also, the “D3 selectivity D2long/D3” value at D3 receptor [1] worked out at 140. On D3 receptor [1], the “D3 selectivity D2short/D3” value stood at 88. In addition, the “D3 selectivity D4.4/D3” value on D3 receptor [1] came to 25.
As to `O=C(NCCCCN1CCN(c2cccc(Cl)c2Cl)CC1)c1cc2cc(Br)ccc2o1` [Example 6, N-4-(4-(2,3-dichlorophenyl)piperazine-1-yl)butyl-5-bromo-2-benzo[b]furanylcarbarnide], the inhibition constant Ki at human D2long receptor amounted to 10000 nM; in [3], 2500 nM; at human D4.4 receptor, 3100 nM; at D1 receptor, 2100 nM; at α1 receptors, 1300 nM; on human D2short receptor, 4800 nM. Further, the results for the Ki at D3 receptor [1] and at serotonin receptor 5-HT2 were 3.4 nM and 540 nM, respectively. Moreover, the “D3 affinity (in words)” value on D3 receptor [1] is recorded as “subnanomolar affinity”. Also, the “D3 selectivity D2long/D3” value on D3 receptor [1] is 2900. On D3 receptor [1], the “D3 selectivity D2short/D3” value was determined as 1400. The “D3 selectivity D4.4/D3” value on D3 receptor [1] is reported as 910.
On to `O=C(NCCCCN1CCN(c2cccc(Cl)c2Cl)CC1)c1cc2ccccc2[te]1` [Example 9, N-4-(4-(2,3-dichlorophenyl)piperazine-1-yl)butyl-2-benzo[b]tellurophenylcarbamide], for which the Ki at human D2long receptor was found to be 91 nM; in [3], 130 nM; at human D4.4 receptor it was 150 nM; at D1 receptor, 1400 nM; on α1 receptors, 100 nM; at human D2short receptor, 48 nM. For the same molecule, the values for the Ki at D3 receptor [1] and on serotonin receptor 5-HT2 were 0.55 nM and 730 nM, respectively. In addition, the “D3 selectivity D2long/D3” value at D3 receptor [1] was found to be 170. In addition, the “D3 selectivity D2short/D3” value at D3 receptor [1] is on record as 87. The “D3 selectivity D4.4/D3” value on D3 receptor [1] was found to be 270.

One may read the Ki as the dissociation constant of the complex between target and ligand, obtained from inhibition or displacement. As a reminder, the EC50 is the midpoint of the concentration-response curve.
